# According to article PMC12523804, “Evaluation of molecular mechanisms of (Z)-3-(pentadec-10′-enyl)-catechol (litreol) and synthetic derivatives as inhibitors of human leukotriene biosynthesis” (Redox Biology, 2025):
# Test system: NF-κB
# Test: Western blot of NF-κB
# Type: cell-based
# Conditions: LPS stimulation
# Description: Human polymorphonuclear leukocytes (PMNLs; 50 × 10^6), isolated from whole blood, were resuspended in 1 mL of cold PGC buffer. Briefly, neutrophils were pre-incubated for 15 min at 37 °C with test compounds (1 μM). […] The samples were subsequent centrifuged (1200g, 10 min) and the pellets were resuspended in 100 μL od SDS-PAGE loading buffer (2x) (Tris 1 M pH 8, EDTA 0.2 M, 10 % SDS, 10 % mercaptoethanol). Correct protein loading on the gels and transfer of proteins to the nitrocellulose membrane were confirmed by Ponceau staining. Membranes with transferred proteins were incubated overnight with primary antibodies in 1x Tris Buffered Saline (TBS) with 1 % Casein (Biorad- #1610782). Membranes were then washed and incubated with horseradish peroxidase-conjugated secondary antibodies for 1 h at room temperature. Blots were developed using enhanced chemiluminescence detection reagents ECL (Immobilion ECL Ultra Western HRP Substrate - Cat# WBULS0500 Millipore) and acquired using ChemiDoc Imaging System (BioRad). Antibody recognizing phosphorylated p38-MAPkinase, pERK, ERK, NfKB were from Cell Signalling Technology (Boston, MA) and used at 1:1000 dilution. Secondary antibodies were purchased from Biorad (170–6515; 170–6516) and used at 1:2000 diluition.
smiles,measurement,value
"CCCC/C=C\CCCCCCCCCc1cccc(O)c1O [CI, (Z)-3-(pentadec-10′-enyl)-catechol]",NF-κB expression (Western blot),most pronounced effect
